Laboratory results from ChEMBL document CHEMBL1201862, “PubChem BioAssay data set” (2004).
Activity calls are given as the source filed them.

Legend:
[1] = molecular target: T1, Long-chain-fatty-acid--AMP ligase FadD28 (Mycobacterium tuberculosis, UniProt P9WQ59); assay: Fluorescence polarization aasay to screen for inhibitors that compete for the binding of FadD28 to a bisubstrate Measured in Biochemical System Using Plate Reader - 2147-01_Inhibitor_Dose_CherryPick_Activity.; format: functional, Mycobacterium tuberculosis H37Rv
T1 sequence (P9WQ59 whole entry): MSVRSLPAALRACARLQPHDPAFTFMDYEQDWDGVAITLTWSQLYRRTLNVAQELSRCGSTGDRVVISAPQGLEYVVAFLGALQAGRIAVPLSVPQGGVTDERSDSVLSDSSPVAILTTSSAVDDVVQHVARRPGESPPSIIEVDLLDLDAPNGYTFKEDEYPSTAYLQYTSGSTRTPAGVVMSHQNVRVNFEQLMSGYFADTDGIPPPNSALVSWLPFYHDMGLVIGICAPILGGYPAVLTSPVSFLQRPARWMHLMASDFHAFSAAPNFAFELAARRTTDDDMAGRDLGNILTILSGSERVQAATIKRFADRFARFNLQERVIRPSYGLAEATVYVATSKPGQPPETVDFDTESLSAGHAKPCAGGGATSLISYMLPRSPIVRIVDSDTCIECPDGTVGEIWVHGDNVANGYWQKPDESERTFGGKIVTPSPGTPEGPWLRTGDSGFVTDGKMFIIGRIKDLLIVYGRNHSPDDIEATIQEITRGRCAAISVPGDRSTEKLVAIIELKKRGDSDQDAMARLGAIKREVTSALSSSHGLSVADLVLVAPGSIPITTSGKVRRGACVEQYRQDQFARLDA

Fatty acid synthase [2] = molecular target: T2, Fatty acid synthase (Homo sapiens, UniProt P49327); assay: inhibition of human FAS-TE enzyme activity – biochemical, endpoint fluorescence intensity, uHTS hits, dose response (AID 624327); format: functional;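 note: fluorescence from hydrolysis of an O-methyl fluorescein acyl ester substrate by the enzyme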
Fatty acid synthase [3] = molecular target: T2, Fatty acid synthase; assay: inhibition of human FAS-TE enzyme activity – biochemical, kinetic fluorescence intensity, dose response (AID 624326); format: functional;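 note: rate of fluorescence rise from hydrolysis of a fluorogenic O-methyl fluorescein ester substrate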
[4] = molecular target: T3, Adenosylmethionine-8-amino-7-oxononanoate aminotransferase (Mycobacterium tuberculosis, UniProt P9WQ81); assay: Mycobacterium tuberculosis BioA enzyme inhibitor Measured in Biochemical System Using Plate Reader - 2163-02_Inhibitor_Dose_CherryPick_Activity.; format: functional, Mycobacterium tuberculosis UT205
T3 sequence (P9WQ81 whole entry): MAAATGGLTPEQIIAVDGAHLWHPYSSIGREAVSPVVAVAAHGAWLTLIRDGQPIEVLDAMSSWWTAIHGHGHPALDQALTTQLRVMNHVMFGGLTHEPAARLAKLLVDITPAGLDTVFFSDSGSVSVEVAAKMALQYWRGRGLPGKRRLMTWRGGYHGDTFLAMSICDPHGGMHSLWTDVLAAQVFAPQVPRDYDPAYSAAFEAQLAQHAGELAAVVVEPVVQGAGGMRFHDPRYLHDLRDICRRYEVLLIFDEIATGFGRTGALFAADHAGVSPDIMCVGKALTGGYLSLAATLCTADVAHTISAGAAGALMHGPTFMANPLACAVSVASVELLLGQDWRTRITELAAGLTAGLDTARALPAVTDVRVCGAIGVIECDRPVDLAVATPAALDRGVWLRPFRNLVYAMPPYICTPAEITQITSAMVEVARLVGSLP

Albumin = Albumin (Bos taurus, UniProt P02769); assay: Counterscreen for inhibitors of T-cell receptor (TCR)-CD3 interaction: Fluorescence-based biochemical high throughput dose response assay to identify inhibitors of T-cell receptor (TCR)-CD3 interaction using a TAMRA-labeled BSA probe.; format: functional
Albumin, sequence (P02769 whole entry): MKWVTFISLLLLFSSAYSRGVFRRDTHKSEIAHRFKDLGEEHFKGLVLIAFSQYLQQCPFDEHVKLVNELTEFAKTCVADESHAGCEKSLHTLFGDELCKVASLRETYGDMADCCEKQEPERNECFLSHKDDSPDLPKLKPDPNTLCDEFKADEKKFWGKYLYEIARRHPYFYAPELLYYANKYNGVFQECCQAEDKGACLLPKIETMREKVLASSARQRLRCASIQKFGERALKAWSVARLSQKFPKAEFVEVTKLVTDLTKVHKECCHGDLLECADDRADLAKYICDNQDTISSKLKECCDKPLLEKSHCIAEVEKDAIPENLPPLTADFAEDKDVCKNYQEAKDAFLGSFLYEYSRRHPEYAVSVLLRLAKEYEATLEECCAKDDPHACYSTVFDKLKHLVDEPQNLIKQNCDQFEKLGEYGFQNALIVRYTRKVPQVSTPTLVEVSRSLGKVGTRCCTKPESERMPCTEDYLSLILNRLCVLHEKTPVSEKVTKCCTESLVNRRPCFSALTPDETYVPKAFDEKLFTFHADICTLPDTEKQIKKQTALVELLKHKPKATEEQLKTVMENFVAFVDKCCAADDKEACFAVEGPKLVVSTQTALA

T2 sequence (P49327 whole entry): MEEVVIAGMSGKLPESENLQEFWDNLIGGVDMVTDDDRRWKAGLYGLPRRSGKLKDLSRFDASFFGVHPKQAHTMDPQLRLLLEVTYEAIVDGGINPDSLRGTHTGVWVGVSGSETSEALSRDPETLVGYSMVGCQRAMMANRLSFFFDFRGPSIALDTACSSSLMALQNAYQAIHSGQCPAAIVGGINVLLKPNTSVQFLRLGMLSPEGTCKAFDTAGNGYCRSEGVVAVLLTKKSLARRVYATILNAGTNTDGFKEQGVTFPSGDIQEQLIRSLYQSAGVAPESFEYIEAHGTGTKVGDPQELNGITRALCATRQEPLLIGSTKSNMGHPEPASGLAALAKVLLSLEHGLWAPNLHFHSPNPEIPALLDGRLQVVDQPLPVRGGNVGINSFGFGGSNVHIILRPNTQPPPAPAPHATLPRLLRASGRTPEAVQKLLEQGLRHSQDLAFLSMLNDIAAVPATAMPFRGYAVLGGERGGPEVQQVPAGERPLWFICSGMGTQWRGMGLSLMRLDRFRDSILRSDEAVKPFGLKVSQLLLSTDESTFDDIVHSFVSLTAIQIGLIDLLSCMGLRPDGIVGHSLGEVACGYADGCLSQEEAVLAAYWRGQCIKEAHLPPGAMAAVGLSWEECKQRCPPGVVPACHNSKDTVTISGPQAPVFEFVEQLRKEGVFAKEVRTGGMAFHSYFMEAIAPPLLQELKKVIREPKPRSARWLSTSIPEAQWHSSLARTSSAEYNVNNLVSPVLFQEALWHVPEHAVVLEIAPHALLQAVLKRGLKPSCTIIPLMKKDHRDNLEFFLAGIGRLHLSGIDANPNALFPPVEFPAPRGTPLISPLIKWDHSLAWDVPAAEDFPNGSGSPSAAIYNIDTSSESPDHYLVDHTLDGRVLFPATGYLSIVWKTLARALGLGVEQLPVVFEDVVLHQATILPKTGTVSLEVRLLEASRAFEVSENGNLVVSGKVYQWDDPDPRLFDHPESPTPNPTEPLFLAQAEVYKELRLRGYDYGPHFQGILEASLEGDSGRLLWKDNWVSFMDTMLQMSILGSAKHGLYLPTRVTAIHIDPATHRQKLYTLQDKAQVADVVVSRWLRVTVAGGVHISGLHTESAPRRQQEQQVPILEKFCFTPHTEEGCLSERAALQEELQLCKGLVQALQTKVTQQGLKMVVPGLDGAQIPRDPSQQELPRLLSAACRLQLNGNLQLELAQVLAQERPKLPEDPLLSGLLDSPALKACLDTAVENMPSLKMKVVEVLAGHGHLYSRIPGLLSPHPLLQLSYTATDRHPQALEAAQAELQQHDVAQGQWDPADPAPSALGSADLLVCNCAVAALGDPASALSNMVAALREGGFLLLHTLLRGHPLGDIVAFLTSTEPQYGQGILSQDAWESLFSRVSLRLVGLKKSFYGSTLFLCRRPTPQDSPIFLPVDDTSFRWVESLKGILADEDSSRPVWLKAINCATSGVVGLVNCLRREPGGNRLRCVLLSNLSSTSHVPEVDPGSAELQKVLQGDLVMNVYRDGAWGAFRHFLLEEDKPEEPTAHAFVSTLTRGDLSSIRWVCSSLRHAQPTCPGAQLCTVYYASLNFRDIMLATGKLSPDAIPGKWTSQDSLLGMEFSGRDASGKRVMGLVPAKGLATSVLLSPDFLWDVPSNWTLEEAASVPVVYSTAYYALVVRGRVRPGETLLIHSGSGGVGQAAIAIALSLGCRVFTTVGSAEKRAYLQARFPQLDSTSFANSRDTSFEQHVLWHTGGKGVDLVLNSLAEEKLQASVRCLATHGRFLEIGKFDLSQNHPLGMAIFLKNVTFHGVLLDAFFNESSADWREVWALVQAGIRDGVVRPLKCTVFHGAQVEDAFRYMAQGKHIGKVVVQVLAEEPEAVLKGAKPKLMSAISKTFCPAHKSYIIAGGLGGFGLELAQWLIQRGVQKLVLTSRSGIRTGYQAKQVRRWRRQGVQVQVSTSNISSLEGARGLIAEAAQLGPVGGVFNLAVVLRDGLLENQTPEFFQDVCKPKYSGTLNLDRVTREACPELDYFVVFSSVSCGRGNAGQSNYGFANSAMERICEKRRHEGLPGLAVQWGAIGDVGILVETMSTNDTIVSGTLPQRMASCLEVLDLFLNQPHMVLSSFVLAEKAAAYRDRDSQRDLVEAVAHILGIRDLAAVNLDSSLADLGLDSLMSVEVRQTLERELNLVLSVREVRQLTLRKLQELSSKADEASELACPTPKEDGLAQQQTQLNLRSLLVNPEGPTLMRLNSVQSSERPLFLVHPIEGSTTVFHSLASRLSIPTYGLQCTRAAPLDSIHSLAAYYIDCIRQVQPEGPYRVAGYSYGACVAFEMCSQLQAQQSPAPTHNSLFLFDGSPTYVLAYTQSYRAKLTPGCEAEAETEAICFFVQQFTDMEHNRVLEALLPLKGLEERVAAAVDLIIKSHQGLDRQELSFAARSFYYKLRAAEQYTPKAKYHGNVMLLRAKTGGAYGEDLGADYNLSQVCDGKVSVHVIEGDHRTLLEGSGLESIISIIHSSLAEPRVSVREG

SMILES	AC50 [1]	AC50 [4]	further results
CSc1ncc(Cl)c(C(=O)Nc2nnc(SC/C=C/c3ccccc3)s2)n1	> 100 µM (inactive)	–	–
COc1ccc(C(=O)NC(CC(=O)O)c2cc([N+](=O)[O-])ccc2Cl)c(SC)c1 (stereo unspecified)	–	–	IC50 (Fatty acid synthase [2]): 7.33 µM (active); IC50 (Fatty acid synthase [3]): 8.79 µM (active)
C=CCNC(=O)/C(=C\c1ccc(OC)cc1)NC(=O)c1ccc([N+](=O)[O-])cc1	–	–	IC50 (Fatty acid synthase [2]): 2.93 µM (active); IC50 (Fatty acid synthase [3]): 2.21 µM (active)
Nn1c(SCCOc2ccccc2)nnc1-c1cccnc1	–	1.33 µM (active)	–
O=C(O)CCc1ccc(-c2ccc(Cl)cc2)n1Cc1ccco1	21.8 µM (active)	–	–
Cc1cc(NC(=O)CN(C)S(=O)(=O)c2c[nH]cn2)ccc1Br	–	19 µM (active)	–
Cc1cccc(C(=O)NNC(=O)c2ccc(NS(=O)(=O)c3cccs3)cc2)c1C	43.8 µM (active)	–	–
CCC(=O)N1CC[C@@H]2[C@@H](CO)N(C)c3ccc(-c4cccc(F)c4)cc3[C@@H]21	–	0.184 µM (active)	–
C=CCNC(=S)NNC(=O)c1cccn(Cc2cccc(Cl)c2)c1=O	–	–	IC50 (Albumin): > 94.1 µM (inactive)
